# Assay: Exploratory stability study on Compound A drug substance (HPLC, water content, XRPD)
# Format: physicochemical
# Set-up: Water Content: unit: wt %
# Protocol: This is a reverse phase high performance liquid chromatography (HPLC) method devised to determine the assay and impurity profile of Compound A for release and stability testing. The method was qualified for its intended uses. Forced degradation studies were performed and used to qualify this method as stability indicating. The HPLC parameters are listed below in Table 6.
# An exploratory stability study on Compound A is on-going. The stability of Compound A will be studied at 5° C., 25° C./60% RH, and 40° C./75% RH with sampling points at 1, 2, 3, and 6 months. Samples will be analyzed using the stability indicating method TEST-05187 (high performance liquid chromatography (HPLC)).
# The critical quality attributes of the drug substance Compound A that will be monitored are appearance, purity, assay (wt %), impurities, water content, and x-ray powder diffraction (XRPD). The container and closure system for the stability study consists of double plastic (PE) bags placed inside an high-density polyethylene (HDPE) container.
# [1] = Storage at 25° C. ± 2° C./60% RH ± 5%, Initial Date + 1 Month
# [2] = Storage at 25° C. ± 2° C./60% RH ± 5%, Initial Date + 2 Months
# [3] = Storage at 40° C. ± 2° C./75% RH ± 5%, Initial Date + 1 Month
# [4] = Storage at 40° C. ± 2° C./75% RH ± 5%, Initial Date + 2 Months
structure (smiles),measurement,setting,value
"N#Cc1ccc(O[C@H]2CC[C@H](NC(=O)c3ccc(N4CCC(CN5CCN(c6cc7c(cc6F)C(=O)N(C6CCC(=O)NC6=O)C7=O)CC5)CC4)nn3)CC2)cc1Cl (some centres unmarked) [Compound A, N-[(1r,4r)-4-(3-chloro-4-cyanophenoxy)cyclohexyl]-6-[4-({4-[2-(2,6-dioxopiperidin-3-yl)-6-fluoro-1,3-dioxo-2,3-dihydro-1H-isoindol-5-yl]piperazin-1-yl}methyl)piperidin-1-yl]pyridazine-3-carboxamide]",Appearance,[1],Yellow
same,HPLC Assay (wt %),[1],97.3 wt %
same,HPLC Impurities (%) RRT 0.50 (Intermediate 5),[1],0.05%
same,HPLC Impurities (%) RRT 0.89,[1],0.07%
same,HPLC Impurities (%) RRT 0.90,[1],<QL (QL = 0.05%)
same,HPLC Impurities (%) RRT 0.92,[1],0.07%
same,HPLC Impurities (%) RRT 0.94,[1],ND (ND = <0.02%)
same,HPLC Impurities (%) RRT 0.96 (Intermediate 2),[1],0.18%
same,HPLC Impurities (%) RRT 1.02,[1],0.34%
same,HPLC Impurities (%) RRT 1.04 (Intermediate 3),[1],0.07%
same,HPLC Impurities (%) RRT 1.05 (Impurity 1),[1],ND (ND = <0.02%)
same,HPLC Impurities (%) RRT 1.07,[1],0.15%
same,HPLC Impurities (%) RRT 1.23,[1],0.05%
same,HPLC Impurities (%) RRT 1.32,[1],ND (ND = <0.02%)
same,HPLC Impurities (%) RRT 1.36 (Intermediate 9),[1],<QL (QL = 0.05%)
same,HPLC Impurities (%) RRT 1.39,[1],0.57%
same,HPLC Impurities (%) RRT 1.54,[1],<QL (QL = 0.05%)
same,HPLC Purity (%),[1],98.3%
same,Total Impurities (%),[1],1.6%
same,Water Content,[1],0.93
same,XRPD,[1],Crystalline
same,Appearance,[2],Yellow
same,HPLC Assay (wt %),[2],97.5 wt %
same,HPLC Impurities (%) RRT 0.50 (Intermediate 5),[2],0.05%
same,HPLC Impurities (%) RRT 0.89,[2],0.07%
same,HPLC Impurities (%) RRT 0.90,[2],<QL (QL = 0.05%)
same,HPLC Impurities (%) RRT 0.92,[2],0.06%
same,HPLC Impurities (%) RRT 0.94,[2],<QL (QL = 0.05%)
same,HPLC Impurities (%) RRT 0.96 (Intermediate 2),[2],0.17%
same,HPLC Impurities (%) RRT 1.02,[2],0.28%
same,HPLC Impurities (%) RRT 1.05 (Impurity 1),[2],ND (ND = <0.02%)
same,HPLC Impurities (%) RRT 1.07,[2],0.15%
same,HPLC Impurities (%) RRT 1.23,[2],0.05%
same,HPLC Impurities (%) RRT 1.32,[2],<QL (QL = 0.05%)
same,HPLC Impurities (%) RRT 1.36 (Intermediate 9),[2],ND (ND = <0.02%)
same,HPLC Impurities (%) RRT 1.39,[2],0.65%
same,HPLC Impurities (%) RRT 1.54,[2],<QL (QL = 0.05%)
same,HPLC Purity (%),[2],98.3%
same,Total Impurities (%),[2],1.5%
same,Water Content,[2],1.2
same,XRPD,[2],Crystalline
same,Appearance,[3],Yellow
same,HPLC Assay (wt %),[3],97.3 wt %
same,HPLC Impurities (%) RRT 0.50 (Intermediate 5),[3],0.05%
same,HPLC Impurities (%) RRT 0.89,[3],0.06%
same,HPLC Impurities (%) RRT 0.90,[3],<QL (QL = 0.05%)
same,HPLC Impurities (%) RRT 0.92,[3],0.07%
same,HPLC Impurities (%) RRT 0.94,[3],ND (ND = <0.02%)
same,HPLC Impurities (%) RRT 0.96 (Intermediate 2),[3],0.18%
same,HPLC Impurities (%) RRT 1.02,[3],0.34%
same,HPLC Impurities (%) RRT 1.04 (Intermediate 3),[3],0.08%
same,HPLC Impurities (%) RRT 1.05 (Impurity 1),[3],ND (ND = <0.02%)
same,HPLC Impurities (%) RRT 1.07,[3],0.14%
same,HPLC Impurities (%) RRT 1.23,[3],0.05%
same,HPLC Impurities (%) RRT 1.32,[3],ND (ND = <0.02%)
same,HPLC Impurities (%) RRT 1.36 (Intermediate 9),[3],<QL (QL = 0.05%)
same,HPLC Impurities (%) RRT 1.39,[3],0.58%
same,HPLC Impurities (%) RRT 1.54,[3],<QL (QL = 0.05%)
same,HPLC Purity (%),[3],98.3%
same,Total Impurities (%),[3],1.6%
same,Water Content,[3],1.0
same,XRPD,[3],Crystalline
same,Appearance,[4],Yellow
same,HPLC Assay (wt %),[4],97.2 wt %
same,HPLC Impurities (%) RRT 0.50 (Intermediate 5),[4],0.06%
same,HPLC Impurities (%) RRT 0.89,[4],0.06%
same,HPLC Impurities (%) RRT 0.90,[4],<QL (QL = 0.05%)
same,HPLC Impurities (%) RRT 0.92,[4],0.07%
same,HPLC Impurities (%) RRT 0.94,[4],<QL (QL = 0.05%)
same,HPLC Impurities (%) RRT 0.96 (Intermediate 2),[4],0.18%
same,HPLC Impurities (%) RRT 1.02,[4],0.28%
same,HPLC Impurities (%) RRT 1.04 (Intermediate 3),[4],<QL (QL = 0.05%)
same,HPLC Impurities (%) RRT 1.05 (Impurity 1),[4],ND (ND = <0.02%)
same,HPLC Impurities (%) RRT 1.07,[4],0.14%
same,HPLC Impurities (%) RRT 1.23,[4],0.06%
same,HPLC Impurities (%) RRT 1.32,[4],<QL (QL = 0.05%)
same,HPLC Impurities (%) RRT 1.36 (Intermediate 9),[4],ND (ND = <0.02%)
same,HPLC Impurities (%) RRT 1.39,[4],0.63%
same,HPLC Impurities (%) RRT 1.54,[4],<QL (QL = 0.05%)
same,HPLC Purity (%),[4],98.3%
same,Total Impurities (%),[4],1.5%
same,Water Content,[4],1.3
same,XRPD,[4],Crystalline
same,change in impurities and solid properties,after 2 months at all temperature stations,no increase in impurities nor change in solid properties
same,change in impurities and solid properties,after 5 months from the date of manufacture,no increase in impurities or change in solid properties
same,change in water content,"stability study, all temperature stations",small increase in the water content
